Structures are written as SMILES. pIC50: −log10 of the molar value.

In one experiment the test system is Onchocerca gutturosa adult male worms. The experiment can be described thus: Onchocerca gutturosa in vitro screening model: adult worm motility score and MTT/formazan viability. Type of experiment: cell-based. To be noted: read-out: O. gutt Activity class.
For the compound `O=S(=O)(Nc1cc(F)cc2cccnc12)c1ccccn1` [Compound 135, N-(6-fluoro-quinolin-8-yl)-pyridine-2-sulfonamide], the pIC50 was 5.30 to 6.30.

As for `CN1CCc2cccc(NS(=O)(=O)c3ncccc3C3CC3)c2C1` [Compound 37, 3-cyclo-propyl-N-(2-methyl-1,2,3,4-tetra-hydroisoquin-olin-8-yl)pyr-idine-2-sulfonamide], the pIC50 was 6.30 to 6.70.

On to `O=S(=O)(Nc1cccc2c1NCCC2)c1ncccc1F` [Compound 46, 3-fluoro-N-(1,2,3,4-tetra-hydroquin-olin-8-yl)-pyridine-2-sulfonamide], for which the pIC50 is 5.30 to 6.30. Regarding `Cn1nc(N2CCOCC2)cc1S(=O)(=O)Nc1cccc2cccnc12` [Compound 192, 1-methyl-3-morpholino-N-(quinolin-8-yl)-1H-pyrazole-5-sulfonamide], the pIC50 was 5.30 to 6.30. In the case of `CN(C)c1cnc(S(=O)(=O)Nc2c(Cl)ccc3cccnc23)cn1` [Compound 49, N-(7-chloro-quinolin-8-yl)-5-(dimeth-ylamino)pyr-azine-2-sulfonamide], the pIC50 is 5.30 to 6.30. Consider `O=S(=O)(Nc1cccc2cccnc12)c1ccc(-c2ccccc2)cn1` [Compound 244, 5-phenyl-N-(quinolin-8-yl)pyridine-2-sulfonamide], for which the pIC50 is 5.30 to 6.30. Take `CCn1ccnc1S(=O)(=O)Nc1cccc2cccnc12` [Compound 240, 1-ethyl-N-(quinolin-8-yl)-1H-imidazole-2-sulfonamide]: the pIC50 was greater than 6.70. Same read-out and setting: next, `CC(C)n1ccnc1S(=O)(=O)Nc1cccc2cccnc12` [Compound 241, 1-isopropyl-N-(quinolin-8-yl)-1H-imidazole-2-sulfonamide]: greater than 6.70; `Cc1cccnc1S(=O)(=O)Nc1cccc2ccc(-c3ccccc3)nc12` [Compound 22, 3-methyl-N-(2-phenyl-quinolin-8-yl)pyridine-2-sulfonamide]: 5.30 to 6.30; `CN(C)c1cccnc1S(=O)(=O)Nc1cccc2c1CN(C1CC1)C2` [Compound 47, N-(2-cyclo-propyliso-indolin-4-yl)-3-(dimethyl-amino)pyr-idine-2-sulfonamide]: 5.30 to 6.30. As to `COc1ccc(S(=O)(=O)Nc2cccc3cccnc23)nc1` [Compound 235, 5-methoxy-N-(quinolin-8-yl)pyridine-2-sulfonamide], the pIC50 is greater than 6.70.

Regarding `Cc1cccnc1S(=O)(=O)Nc1cccc2c1N(C1CC1)CCC2` [Compound 38, N-(1-cyclo-propyl-1,2,3,4-tetra-hydroquin-olin-8-yl)-3-methylpyr-idine-2-sulfonamide], the pIC50 was 5.30 to 6.30. Same read-out and setting: next, `O=S(=O)(Nc1cccc2cccnc12)c1nccc2ncccc12` [Compound 229, N-(quinolin-8-yl)-1,6-naphthyridine-5-sulfonamide]: greater than 6.70; `O=S(=O)(Nc1cccc2cccnc12)c1ccco1` [Compound 281, N-(quinolin-8-yl)furan-2-sulfonamide]: 5.30 to 6.30; `O=S(=O)(Nc1cccc2cccnc12)c1ccc(O)cn1` [Compound 218, 5-hydroxy-N-(quinolin-8-yl)pyridine-2-sulfonamide]: 5.30 to 6.30. In the case of `Cn1ccnc1S(=O)(=O)Nc1cc(F)cc2cccnc12` [Compound 134, N-(6-fluoro-quinolin-8-yl)-1-methyl-1H-imidazole-2-sulfonamide], the pIC50 was greater than 6.70. As to `COc1cnc(S(=O)(=O)Nc2c(Cl)ccc3cccnc23)cn1` [Compound 78, N-(7-chloro-quinolin-8-yl)-5-meth-oxypyrazine-2-sulfonamide], the pIC50 is 5.30 to 6.30.

Take `NC(=O)c1cccc(S(=O)(=O)Nc2ccc(N3CCOCC3)c3cccnc23)c1` [Compound 92, 3-(N-(5-morpholino-quin-olin-8-yl)sulfamoyl)-benzamide]: the pIC50 was 5.30 to 6.30.

As for `N#Cc1ccc(S(=O)(=O)Nc2cccc3cccnc23)cc1` [Compound 279, 4-cyano-N-(quinolin-8-yl)benzene-sulfonamide], the pIC50 was 6.30 to 6.70. Take `Cc1cccnc1S(=O)(=O)Nc1cccc2ncc(N3CCC3)cc12` [Compound 20, N-(3-(azet-idin-1-yl)-quinolin-5-yl)-3-meth-ylpyridine-2-sulfonamide]: the pIC50 is 6.30 to 6.70. For `O=S(=O)(Nc1ccc(F)c2cccnc12)c1ccco1` [Compound 64, N-(5-fluoro-quinolin-8-yl)furan-2-sulfonamide], the pIC50 is greater than 6.70. For the compound `O=S(=O)(Nc1ccc(F)c2cccnc12)c1cn[nH]c1` [Compound 63, N-(5-fluoro-quinolin-8-yl)-1H-pyrazole-4-sulfonamide], the pIC50 was 5.30 to 6.30. For the compound `O=S(=O)(Nc1cccc2cccnc12)c1ccc2ccccc2c1` [Compound 282, N-(quinolin-8-yl)naphthalene-2-sulfonamide], the pIC50 is 6.30 to 6.70. With `CN1CCC(S(=O)(=O)Nc2cccc3cccnc23)CC1` [Compound 216, 1-methyl-N-(quinolin-8-yl)piperidine-4-sulfonamide], the pIC50 was 5.30 to 6.30. Still for that read-out and setting: next, `Cc1cc(NS(=O)(=O)c2ccccn2)c2ncccc2c1` [Compound 132, N-(6-methyl-quinolin-8-yl)pyridine-2-sulfonamide]: 6.30 to 6.70.

A further experiment concerns Dirofilaria immitis. The experiment can be described thus: Heartworm screen Dirofilaria immitis (stage DiMF/DiL4 not specified in the tables). Type of experiment: cell-based. The conditions noted are these: read-out: D. immitis Activity class.
Turning to `Cc1ccncc1S(=O)(=O)Nc1cccc2cccnc12` [Compound 148, 4-methyl-N-(quinolin-8-yl)pyridine-3-sulfonamide], the pIC50 is 5.30 to 6.30. For `COc1cnc2c(NS(=O)(=O)c3ccc(C(F)(F)F)nc3)cccc2c1` [Compound 11, N-(3-meth-oxyquinolin-8-yl)-6-(trifluoro-methyl)pyr-idine-3-sulfonamide], the pIC50 was 5.30 to 6.30. Regarding `O=S(=O)(Nc1ccc(Oc2cccc(C(F)(F)F)c2)c2cccnc12)c1nccn1CC(F)(F)F` [Compound 292, 1-(2,2,2-trifluoroethyl)-N-(5-(3-(trifluoromethyl)phenoxy)quinolin-8-yl)-1H-imidazole-2-sulfonamide], the pIC50 was greater than 6.70.

Consider `CCn1ccnc1S(=O)(=O)Nc1cccc2cc(C(C)=O)cnc12` [Compound 287, N-(3-acetylquinolin-8-yl)-1-ethyl-1H-imidazole-2-sulfonamide], for which the pIC50 is 6.30 to 6.70.

As for `Cc1ccc(C(F)(F)F)nc1S(=O)(=O)Nc1cccc2cccnc12` [Compound 163, 3-methyl-N-(quinolin-8-yl)-6-(trifluoromethyl) pyridine-2-sulfonamide], the pIC50 is 5.30 to 6.30. On the same count and under the same terms, next, `CCn1ccnc1S(=O)(=O)Nc1cccc2c(C)ccnc12` [Compound 104, 1-ethyl-N-(4-methylquin-olin-8-yl)-1H-imidazole-2-sulfonamide]: 6.30 to 6.70; `Cc1ccnc2c(NS(=O)(=O)c3ccc(C(F)(F)F)nc3)cccc12` [Compound 8, N-(4-methyl-quinolin-8-yl)-6-(trifluoro-methyl)pyr-idine-3-sulfon-amide]: 6.30 to 6.70. Same read-out and setting: next, `O=S(=O)(Nc1cc(F)cc2cccnc12)c1nccn1-c1ccc(C(F)(F)F)cc1` [Compound 295, N-(6-fluoroquinolin-8-yl)-1-(4-(trifluoromethyl)phenyl)-1H-imidazole-2-sulfonamide]: greater than 6.70; `CCn1ccnc1S(=O)(=O)Nc1ccc(Br)c2cccnc12` [Compound 293, N-(5-bromoquinolin-8-yl)-1-ethyl-1H-imidazole-2-sulfonamide]: greater than 6.70. Consider `O=S(=O)(Nc1ccc(C(F)(F)F)c2cccnc12)c1nccn1-c1ccccc1` [Compound 289, 1-phenyl-N-(5-(trifluoromethyl)quinolin-8-yl)-1H-imidazole-2-sulfonamide], for which the pIC50 is greater than 6.70. `COc1ccnc2c(NS(=O)(=O)c3ccc(C(F)(F)F)nc3)cccc12` [Compound 10, N-(4-meth-oxyquinolin-8-yl)-6-(trifluoro-methyl)pyr-idine-3-sulfonamide]: the pIC50 is 5.30 to 6.30. Still for that read-out and setting: next, `CCn1ccnc1S(=O)(=O)Nc1cc(C(=O)c2ccccc2)cc2cccnc12` [Compound 297, N-(6-benzoylquinolin-8-yl)-1-ethyl-1H-imidazole-2-sulfonamide]: 6.30 to 6.70; `CCn1ccnc1S(=O)(=O)Nc1cccc2c(Cl)ccnc12` [Compound 85, N-(4-chloro-quinolin-8-yl)-1-ethyl-1H-imidazole-2-sulfonamide]: 5.30 to 6.30; `CCn1ccnc1S(=O)(=O)Nc1cccc2cc(N(C)C)cnc12` [Compound 286, N-(3-(dimethylamino)quinolin-8-yl)-1-ethyl-1H-imidazole-2-sulfonamide]: 6.30 to 6.70.

Regarding `O=S(=O)(Nc1cccc2cccnc12)c1cncc(C(F)(F)F)c1` [Compound 263, N-(quinolin-8-yl)-5-(trifluoromethyl) pyridine-3-sulfonamide], the pIC50 was 6.30 to 6.70. Same read-out and setting: next, `CCn1ccnc1S(=O)(=O)Nc1ccc(C#N)c2cccnc12` [Compound 290, N-(5-cyanoquinolin-8-yl)-1-ethyl-1H-imidazole-2-sulfonamide]: 6.30 to 6.70; `CCn1ccnc1S(=O)(=O)Nc1cccc2c(-c3ccccc3)ccnc12` [Compound 291, 1-ethyl-N-(4-phenylquinolin-8-yl)-1H-imidazole-2-sulfonamide]: greater than 6.70.

`O=S(=O)(Nc1cccc2cccnc12)c1ccc(C2CC2)nc1` [Compound 142, 6-cyclopropyl-N-(quinolin-8-yl)pyridine-3-sulfonamide]: the pIC50 was 5.30 to 6.30.

Regarding `Cc1ccccc1S(=O)(=O)Nc1cccc2cccnc12` [Compound 266, 2-methyl-N-(quinolin-8-yl)benzenesulfon-amide], the pIC50 is 5.30 to 6.30. In the case of `O=S(=O)(Nc1ccc(-c2ccc(F)cc2)c2cccnc12)c1nccn1CC(F)(F)F` [Compound 296, N-(5-(4-fluorophenyl)quinolin-8-yl)-1-(2,2,2-trifluoroethyl)-1H-imidazol-2-sulfonamide], the pIC50 was greater than 6.70. With `Cc1cc(C)c(S(=O)(=O)Nc2cccc3cccnc23)cn1` [Compound 164, 4,6-dimethyl-N-(quinolin-8-yl)pyridine-3-sulfonamide], the pIC50 was 5.30 to 6.30. On the same count and under the same terms, next, `O=S(=O)(Nc1cccc2cccnc12)c1cccnc1C(F)(F)F` [Compound 146, N-(quinolin-8-yl)-2-(trifluoromethyl) pyridine-3-sulfonamide]: 5.30 to 6.30.

For the origin of these results see patent publication US20240148744A1 (Celgene Corporation, priority 2021, published 2024).
